Reference: patent publication US20220016035A1, “Extended Release Highly Loaded Drug Compositions” (Lubrizol Advanced Materials, Inc., priority 2017, published 2022)

Assays:
[1] = Forced degradation testing of Levetiracetam tablets and powder blends, 12 days, impurities by HPLC; type: physicochemical; settings: Levetiracetam examples, forced degradation conditions
Experimental: 1.4 g of anhydrous di basic sodium phosphate in 1 liter of water. Adjusted to pH 3.5 with Orth phosphoric acid. Filter buffer with 0.45 um Nylon membrane filter paper. A mixture of 95 volumes of buffer solution and 5 volumes of Acetonitrile. To each 1 Liter of the mixture, add 1 g of sodium 1-hexanesulfonate monohydrate. […] Cool and make up to the volume with water. (Standard Stock Solution 2500 ppm). Next, Dilute 5 mL of standard solution a to 50 mL with water (Standard Solution (a) 250 ppm), further Dilute 5 mL of standard solution (a) to 100 mL with water (Standard Solution 12.5 ppm). […] Cool to room temperature and add 25 mL of acetonitrile to volumetric flask and make up the volume with water and centrifuge for 15 min @ 3500 RPM. filter the solution with 0.45 μm PVDF Millipore membrane syringe filter by discarding first 5 mL of filtrate. Dilute 5 mL of filtrate to 10 mL with water (2500 ppm). This group of examples is subjected to forced degradation testing conditions, where each example is formed into a tablet and then stored at 60 to 80 degrees C. and 75% relative humidity for a period of 5 or 12 days. At the end of the 5 days or 12 days each tablet is tested for its pH level and percent impurities. […]

[2] = Forced degradation testing of Levetiracetam blends (Table 8), Levetiracetam acid and total impurities by HPLC; type: physicochemical; settings: blend, 12 Day exposure, 60 C./75% RH

| SMILES | WT % IMPURITY [1] [WT %] | Levetiracetam Acid [2] |
| --- | --- | --- |
| CC[C@@H](C(N)=O)N1CCCC1=O [EX 31, Levetiracetam] | 0.02 | – |
| CC[C@@H](C(N)=O)N1CCCC1=O [EX 34, Levetiracetam] | – | 0.01 |
